Among the data in BindingDB's records for doi:10.1016/j.bmcl.2013.11.055 (Shanghai Hengrui Pharmaceutical, 2013) are IC50 values, retold here.

Assay [1] in a line: Antagonist activity at P2Y12 receptor in rat platelet-rich plasma assessed as inhibition of ADP-induced platelet aggregation incubated for 5 mins prior to ADP-challenge by light transmission-based assay.
Assay [2] is described as follows: Antagonist activity at P2Y12 receptor in human platelet-rich plasma assessed as inhibition of ADP-induced platelet aggregation incubated for 5 mins prior to ADP-challenge by light transmission-based assay.

Usually IC50 stands for the concentration that gives 50% inhibition. For `CCCSc1nc(N[C@@H]2C[C@H]2c2ccc(F)c(F)c2)c2nnn([C@H]3[C@H](O)[C@H](O)[C@@H](O)[C@H]3F)c2n1`, the IC50 turned out to be 290 nM in assay [1] and 220 nM in assay [2]. `CCCSc1nc(N[C@@H]2C[C@H]2c2ccc(F)c(F)c2)c2nnn([C@@H]3C[C@H](OCC(F)F)[C@@H](O)[C@H]3O)c2n1`: the IC50 in assay [1] stood at 31300 nM. As for `CCCSc1nc(N[C@@H]2C[C@H]2c2ccc(F)c(F)c2)c2nnn([C@@H]3C[C@H](OCC(F)CO)[C@@H](O)[C@H]3O)c2n1` (stereo not given in full), the IC50 in assay [1] came to 410 nM; in assay [2], 4820 nM. Regarding `CCCSc1nc(N[C@@H]2C[C@H]2c2ccc(F)c(F)c2)c2nnn([C@@H]3C[C@H](OCC(O)CO)[C@@H](O)[C@H]3O)c2n1` (stereo not given in full), the IC50 in assay [1] is 148 nM. Take `CCCSc1nc(N[C@@H]2C[C@H]2c2ccc(F)c(F)c2)c2nnn([C@@H]3C[C@H](F)[C@@H](O)[C@H]3O)c2n1`: the IC50 in assay [1] was 110 nM; in assay [2], 330 nM.

On to `CCCSc1nc(N[C@@H]2C[C@H]2c2ccc(F)c(F)c2)c2nnn([C@@H]3C=C[C@@H](O)[C@H]3O)c2n1`, for which the IC50 in assay [1] is 850 nM; in assay [2], 1970 nM. Turning to `CCCSc1nc(N[C@@H]2C[C@H]2c2ccc(F)c(F)c2)c2nnn([C@H]3[C@H](O)[C@H](O)[C@@H](OCCO)[C@H]3F)c2n1`, the results for the IC50 in assay [1] and in assay [2] were 480 nM and 350 nM, respectively. For `CCCSc1nc(N[C@@H]2C[C@H]2c2ccc(F)c(F)c2)c2nnn(C3[C@H](O)[C@H](O)[C@@H](O)[C@H]3O)c2n1` (stereo not given in full), the IC50 in assay [1] was determined as 1250 nM; in assay [2] it was 1730 nM. In the case of `CCCSc1nc(N[C@@H]2C[C@H]2c2ccc(F)c(F)c2)c2nnn([C@H]3[C@H](O)[C@H](O)[C@@H](OCCO)[C@@H]3O)c2n1`, the IC50 in assay [1] came out at 1380 nM; in assay [2] it was 11300 nM. For `CCCSc1nc(N[C@@H]2C[C@H]2c2ccc(F)c(F)c2)c2nnn([C@H]3[C@H](O)[C@H](O)[C@@H](O)[C@@H]3O)c2n1`, in that order: 650 nM and 16300 nM. In the case of `CCCSc1nc(N[C@@H]2C[C@H]2c2cccnc2)c2nnn([C@@H]3C[C@H](OCCO)[C@@H](O)[C@H]3O)c2n1`, in assay [1], the IC50 came to 1520 nM. On to `CCCSc1nc(N[C@@H]2C[C@H]2c2scnc2C)c2nnn([C@@H]3C[C@H](OCCO)[C@@H](O)[C@H]3O)c2n1`, for which the IC50 in assay [1] amounted to 1810 nM.

With `CCCSc1nc(N[C@@H]2C[C@H]2c2ccc(Cl)s2)c2nnn([C@@H]3C[C@H](OCCO)[C@@H](O)[C@H]3O)c2n1`, the values for the IC50 in assay [1] and in assay [2] were 160 nM and 280 nM, respectively.

As to `CCCSc1nc(N[C@@H]2C[C@H]2c2ccc(F)c(F)c2)c2nnn([C@H]3[C@H](O)[C@H](O)[C@@H](OCCO)[C@@H]3F)c2n1`, the IC50 in assay [2] was 6350 nM. For `CCCSc1nc(N[C@@H]2C[C@H]2c2ccc(F)c(F)c2)c2nnn([C@H]3[C@H](O)[C@H](O)[C@@H](O)[C@@H]3F)c2n1`, the IC50 in assay [2] turned out to be 1670 nM.

As for `CCCSc1nc(N[C@@H]2C[C@H]2c2ccc(F)c(F)c2)c2nnn([C@@H]3C[C@H](OCCO)[C@@H](O)[C@H]3O)c2n1` [AR-C126532XX], in assay [2], the IC50 stood at 500 nM.
